Experimental data taken from ChEMBL document CHEMBL4251546, “Discovery and hit-to-lead evaluation of piperazine amides as selective, state-dependent NaV1.7 inhibitors” (Medchemcomm, 2017).
Converted amounts (≈) assume the structure as drawn.

Assays:
MDR1 (P-gp) = assay: Apparent permeability across MDCK cells transfected with MDR1; assay type: ADME, cell-based, Canis lupus familiaris; conditions: dog
[1] = Cmax in mouse at 100 mg/kg, po; assay type: ADME, organism-based; parameters: dose 100 mg/kg, route oral; conditions: in vivo
Mus musculus = assay: Unbound Cmax in mouse at 100 mg/kg, po; assay type: ADME, organism-based; conditions: in vivo
[2] = Thermodynamic solubility of the compound in PBS at pH 7.4; assay type: physicochemical; conditions: read-out: Therm_solubility
[3] = Plasma concentration in C57Bl/6 mouse histamine dichloride-induced pruritus model at 300 mg/kg, po; assay type: ADME, organism-based; conditions: in vivo

SMILES | solubility thermodynamic [2] | other results
O=C(NCc1ccccc1)[C@@H](c1ccccc1)N1CCN(C(=O)c2cc(F)ccc2Cl)CC1 | 96 µM (≈ 44.7 µg/mL) | Papp (MDR1 (P-gp)): 36 ×10⁻⁶ cm/s; Cmax [1]: 4.3 µM; fCmax (Mus musculus): 0.16 µM; concentration [3]: 22 µM
N#Cc1ccc([C@H](C(=O)NCC(F)(F)C2CC2)N2CCN(C(=O)c3cc(F)ccc3Cl)CC2)cc1 | 154 µM (≈ 77.8 µg/mL) | Cmax [1]: 29.8 µM; fCmax (Mus musculus): 3.28 µM
O=C(Nc1ccc(OCC(F)(F)F)nc1)[C@@H](c1ccccc1)N1CCN(C(=O)c2cc(F)cc(F)c2)CC1 | 19 µM (≈ 10.2 µg/mL) | 
N#Cc1ccc([C@H](C(=O)NCc2ccccc2)N2CCN(C(=O)c3cc(F)cc(F)c3)CC2)cc1 | 74 µM (≈ 35.1 µg/mL) | 
O=C(NCc1ccccc1)[C@@H](c1ccccc1)N1CC2CC(C1)N2C(=O)c1cc(F)ccc1Cl | 83 µM (≈ 39.7 µg/mL) | 
O=C(NCc1ccccc1)[C@@H](c1ccccc1)N1CCN(C(=O)c2cc(F)cc(F)c2)CC1 | 137 µM (≈ 61.6 µg/mL) | 
CN(Cc1ccccc1)C(=O)[C@@H](c1ccccc1)N1CCN(C(=O)c2cc(F)cc(F)c2)CC1 | 220 µM (≈ 102 µg/mL) | 
O=C(NCC1CC1)[C@@H](c1ccccc1)N1CCN(C(=O)c2cc(F)cc(F)c2)CC1 | 472 µM (≈ 195 µg/mL) | 
N#Cc1ccc([C@H](C(=O)NCC2CC2)N2CC3CCC(C2)N3C(=O)c2cc(F)ccc2F)cc1 | 326 µM (≈ 151 µg/mL) | 
N#Cc1cc(OC(F)(F)F)cc(C(=O)N2CCN([C@@H](C(=O)NCc3ccccc3)c3ccccc3)CC2)c1 | 44 µM (≈ 23 µg/mL) | 
N#Cc1ccc([C@H](C(=O)Nc2ccc(OCC(F)(F)F)nc2)N2CCN(C(=O)c3cc(F)cc(F)c3)CC2)cc1 | 15 µM (≈ 8.39 µg/mL) | 
COc1cc([C@H](C(=O)NCc2ccccc2)N2CCN(C(=O)c3cc(F)cc(F)c3)CC2)ccc1C#N | 30 µM (≈ 15.1 µg/mL) | 
O=C(NCc1ccccc1)[C@@H](c1ccccc1)N1CCN(Cc2ccccc2)CC1 | 19 µM (≈ 7.59 µg/mL) | Papp (MDR1 (P-gp)): 24 ×10⁻⁶ cm/s
N#Cc1cc(F)cc(C(=O)N2CCN([C@@H](C(=O)NCC(F)(F)C3CC3)c3ccccc3)CC2)c1 | 405 µM (≈ 191 µg/mL) | Cmax [1]: 12.8 µM; fCmax (Mus musculus): 1.66 µM
O=C(NCc1ccccc1)[C@@H](c1ccccc1)N1CC2CCC(C1)N2C(=O)c1cc(F)ccc1Cl | 35 µM (≈ 17.2 µg/mL) | 
O=C(NCc1ccc(C(F)(F)F)nc1)[C@@H](c1ccccc1)N1CCN(C(=O)c2cc(F)cc(F)c2)CC1 | 225 µM (≈ 117 µg/mL) | 
O=C(NCc1ccccc1)[C@@H](c1ccccc1)N1CCN(C(=O)c2cc(F)cnc2Cl)CC1 | 454 µM (≈ 212 µg/mL) | 
N#Cc1ccc([C@H](C(=O)NCC2CC2)N2CC3CCC(C2)N3C(=O)c2cc(F)cc(F)c2)cc1 | 322 µM (≈ 150 µg/mL) | 
O=C(NCC(F)(F)C1CC1)[C@@H](c1ccccc1)N1CCN(C(=O)c2cc(F)cc(F)c2)CC1 | 346 µM (≈ 160 µg/mL) | 
N#Cc1cc(F)cc(C(=O)N2CCN([C@@H](C(=O)NCc3ccccc3)c3ccccc3)CC2)c1 | 248 µM (≈ 113 µg/mL) | 
O=C(Nc1ccc(OCC(F)(F)F)nc1)[C@@H](c1ccccc1)N1CCN(C(=O)c2cc(F)cnc2Cl)CC1 | 49 µM (≈ 27 µg/mL) | 
